From patent US8946218B2, “CCR2 receptor antagonists, method for producing the same, and use thereof as medicaments” (Boehringer Ingelheim International GmbH, priority 2010, dated 2015) come the findings set out here.

The target of this test is T1, CCR2 (Homo sapiens, UniProt P41597).
T1 construct: Membranes were prepared from THP-1 cells; endogenous in cells; host or cells: THP-1 (human acute monocytic leukaemia cells), membrane preparation
Description: Receptor membrane binding assay: [125I]MCP-1 binding to CCR2 on THP-1 cell membranes (SPA beads). The conditions noted are these: THP-1 membranes, [125I]MCP-1, bound radioactivity after 8 h; read-out: hKi. The method, then:
The above exemplary substances have been tested for binding to CCR2 using a binding assay as outlined herein below:
THP-1 cells (human acute monocytic leukaemia cells) were cultured under standardized conditions at 37° C. and 5% CO2 in a humidified incubator. THP-1 cells were cultivated in RPMI 1640 medium (Gibco 21875) containing 1% MEM-NEAA (Gibso 11140) 2 mM L-glutamine, 1.5 g/L sodium bicarbonate, 4.5 g/L glucose, 10 mM HEPES and 1.0 mM sodium pyruvate, 90%; 10% fetal calf serum (FCS Gibco 10500-064).
Membranes were prepared from THP-1 cells. THP-1 cells were centrifuged at 300×g at 4° C. for 10 min. The cell pellet was resuspended in Phosphate Buffer Saline (PBS, including 10 μM Pefabloc and a protease inhibitor mix ‘complete’, Boehringer Mannheim (1 tablet/50 ml)), to a concentration of […]. The membrane preparation was performed by disrupting the cells by nitrogen […] (at 50 bar, for 1 h) in a “Nitrogen Bombe” (Parr Instrument). Cell debris was removed by centrifugation (800×g at 4° C., 1 min). The supernatant was centrifuged at 80000×g, 4° C. for 30 min to sediment the cell membranes. Usually 50 mg of protein (Bradford assay) were yielded from 1×10E9 cells. The membranes were resuspended in 25 mM HEPES, 25 mM MgCl2, 1 mM CaCl2, 10% Glycerine for storage in aliquots at −80° C. in 25 mM HEPES, 25 mM MgCl2, 1 mM CaCl2, 10% Glycerine and stored at −80° C.
Receptor Membrane Binding Assay:
Perkin Elmer NEX 332 Jod 125 MCP-1, Stock: 2200 Ci/mmol solved in 2000 μl assay buffer, stored at −20° C. THP-1 membrane were adjusted with 25 mM HEPES, pH 7.2; 5 mM MgCl2; 0.5 mM CaCl2; 0.2% BSA assay buffer to a concentration of 2.5 μg/15 μl. Amersham Biosciences PVT-WGA Beads (RPNQ0001) were adjusted with assay buffer to a concentration of 0.24 mg/30 μl. For preparation of the membrane-bead-suspension membranes and beads were incubated for 30 min at RT under rotation (60 rpm) with a ratio of 1:2. Test compounds dissolved in 100% DMSO to a concentration of 10 mM and are further diluted with 100% DMSO to 1 mM. All additional compound dilutions were obtained with assay buffer, final 1% DMSO. Compounds, membrane-bead-suspension and [125I]MCP-1 (ca. 25000 cpm/10 μl) were incubated. Bound radioactivity was determined by scintillation counter after 8 h. Determination of affinity of test compounds (dissociation constant hKi) is calculated by iterative fitting of experimental data using the “easy sys” program, which is based on law of mass action (Schittkowski K. (1994), Numerische Mathematik, Vol. 68, 129-142).

T1 sequence (P41597 whole entry): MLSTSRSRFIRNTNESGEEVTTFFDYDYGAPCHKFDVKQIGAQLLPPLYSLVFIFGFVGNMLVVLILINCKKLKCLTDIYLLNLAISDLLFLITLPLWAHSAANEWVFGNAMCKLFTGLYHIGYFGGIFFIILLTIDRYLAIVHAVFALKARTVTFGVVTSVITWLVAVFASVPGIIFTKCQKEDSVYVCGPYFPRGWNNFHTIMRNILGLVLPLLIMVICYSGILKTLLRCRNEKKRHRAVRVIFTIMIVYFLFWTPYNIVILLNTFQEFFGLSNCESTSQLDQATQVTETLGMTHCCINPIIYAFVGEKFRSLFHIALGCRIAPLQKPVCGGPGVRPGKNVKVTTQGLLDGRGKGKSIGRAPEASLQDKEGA

Regarding `CO[C@@H]1COCC[C@@H]1NC1CCN(C(=O)c2ncnc(Nc3ccc(Cl)c(Cl)c3)c2C)CC1` [Example 17a], the Ki was found to be 1 nM. For `COC1COCCC1NC1CCN(C(=O)c2ncnc(Nc3cccc(Cl)c3C)c2C)CC1` (stereo not drawn) [Example 13], the Ki was determined as 2990 nM. Next, `COc1c(Nc2cccc(C(F)(F)F)c2)ncnc1C(=O)N1CCC(N[C@@H]2CCOC[C@@H]2OC)CC1` [Example 19]: 49 nM; `CO[C@H]1COCC[C@H]1NC1CCN(C(=O)c2nc(C3CC3)nc(Nc3ccc(Cl)c(Cl)c3)c2C)CC1` [Example 33p]: 0.3 nM. For `Cc1c(Nc2ccc(Cl)c(Cl)c2)ncnc1C(=O)N1CCC(NC2CCOCC2)CC1` [Example 33l] the value was 6 nM. For `Cc1c(Nc2ccc(Cl)c(Cl)c2)nc(C(F)(F)F)nc1C(=O)N1CCC(NC2CCOCC2)CC1` [Example 33n] the value was 1 nM; for `Cc1c(Nc2cccc(C(F)(F)F)c2)ncnc1C(=O)N1CCC(N2CCOCC2)CC1` [Example 29], 53 nM; for `CO[C@H]1COCC[C@H]1NC1CCN(C(=O)c2nc(C3CC3)nc(Nc3cccc(C(F)(F)F)c3)c2C)CC1` [Example 33v], 0.4 nM. `CO[C@H]1COCC[C@H]1NC1CCN(C(=O)c2ncnc(Nc3ccc4ccccc4c3)c2C)CC1` [Example 39]: the Ki was 84 nM.

As to `Cc1c(Nc2cc3ccccc3c(C)n2)ncnc1C(=O)N1CCC(N2CCC(N(C)S(C)(=O)=O)CC2)CC1` [Example 24], the Ki is 854 nM. As for `COc1nc(Nc2ccc(Cl)c(Cl)c2)c(C)c(C(=O)N2CCC(NC3CCOCC3)CC2)n1` [Example 33m], the Ki worked out at 0.7 nM. For the compound `COc1nc(Nc2cccc(C(F)(F)F)c2)c(C)c(C(=O)N2CCC(N[C@@H]3CCOC[C@@H]3OC)CC2)n1` [Example 33i], the Ki came out at 3 nM.

For the compound `COC1COCCC1NC1CCN(C(=O)c2ncnc(Nc3cccc(C(F)(F)F)c3)c2C)CC1` (stereo not drawn) [Example 1], the Ki is 16 nM. For `COC1COCCC1NC1CCN(C(=O)c2ncnc(Nc3cccc(F)c3)c2C)CC1` (stereo not drawn) [Example 14], the Ki turned out to be 146 nM. Next, `CO[C@H]1COCC[C@H]1NC1CCN(C(=O)c2nccc(Nc3cccc(C(F)(F)F)c3)c2C)CC1` [Example 28]: 10 nM; `COc1c(Nc2cccc(C(F)(F)F)c2)ncnc1C(=O)N1CCC(N[C@H]2CCOC[C@H]2OC)CC1` [Example 20]: 26 nM; `COC1COCCC1NC1CCN(C(=O)c2ncnc(Nc3ccccc3Cl)c2C)CC1` (stereo not drawn) [Example 17]: 5180 nM. For `COC1COCCC1NC1CCN(C(=O)c2ncnc(Nc3cccc(-c4ccncc4)c3)c2C)CC1` (stereo not drawn) [Example 16], the Ki came out at 707 nM. For `CO[C@@H]1COCC[C@@H]1NC1CCN(C(=O)c2cc(Nc3cccc(C(F)(F)F)c3)ncn2)CC1` [Example 7] the value was 138 nM; for `CN(C1CCN(C2CCN(C(=O)c3cc(Nc4cccc(C(F)(F)F)c4)ncn3)CC2)CC1)S(C)(=O)=O` [Example 8], 398 nM. For `COc1nc(Nc2cccc(C(F)(F)F)c2)c(C)c(C(=O)N2CCC(NC3CCOCC3F)CC2)n1` (stereo not drawn) [Example 33k] the value was 5 nM; for `COc1nc(Nc2ccc(Cl)c(Cl)c2)c(C)c(C(=O)N2CCC(NC3CCOCC3F)CC2)n1` (stereo not drawn) [Example 33h], 2 nM. Next, `COc1nc(Nc2cccc(C(F)(F)F)c2)c(C)c(C(=O)N2CCC(NC3CCOCC3)CC2)n1` [Example 33w]: 3 nM; `CO[C@@H]1COCC[C@@H]1NC1CCN(C(=O)c2cc(Nc3cccc(C(F)(F)F)c3)nc(C(F)(F)F)n2)CC1` [Example 32]: 64 nM. As for `COC1COCCC1NC1CCN(C(=O)c2ncnc(Nc3cccc(C(F)(F)F)n3)c2C)CC1` (stereo not drawn) [Example 4], the Ki was 110 nM.

As for `Cc1c(Nc2ccc(Cl)c(Cl)c2)nc(C2CC2)nc1C(=O)N1CCC(N[C@H]2CCOC[C@H]2F)CC1` [Example 33q], the Ki was 0.8 nM. On to `COc1c(Nc2cccc(C(F)(F)F)c2)ncnc1C(=O)N1CCC(N2CCC(N(C)S(C)(=O)=O)CC2)CC1` [Example 21], for which the Ki amounted to 23 nM. For `Cc1c(Nc2cccc(C(F)(F)F)c2)nc(C2CC2)nc1C(=O)N1CCC(N[C@H]2CCOC[C@H]2F)CC1` [Example 33u] the value was 1 nM. `COC1COCCC1NC1CCN(C(=O)c2ncnc(Nc3cc4ccccc4c(C)n3)c2C)CC1` (stereo not drawn) [Example 34]: the Ki was 1010 nM.

With `CO[C@H]1COCC[C@H]1NC1CCN(C(=O)c2cc(Nc3cccc(C(F)(F)F)c3)nc(C(F)(F)F)n2)CC1` [Example 33], the Ki stood at 36 nM. Consider `COC1COCCC1NC1CCN(C(=O)c2ncnc(Nc3cccc(C)c3)c2C)CC1` (stereo not drawn) [Example 5], for which the Ki is 232 nM. Consider `COc1cc(Nc2ncnc(C(=O)N3CCC(N[C@H]4CCOC[C@H]4OC)CC3)c2C)cc2ccccc12` [Example 38], for which the Ki turned out to be 91 nM. For `Cc1c(Nc2ccc(Cl)c(Cl)c2)nc(C2CC2)nc1C(=O)N1CCC(N[C@@H]2CCOC[C@@H]2F)CC1` [Example 33r] the value was 0.9 nM; for `CO[C@@H]1COCC[C@@H]1NC1CCN(C(=O)c2nc(C3CC3)nc(Nc3cccc(C(F)(F)F)c3)c2C)CC1` [Example 33t], 0.3 nM.

In the case of `COc1nc(Nc2ccc(Cl)c(Cl)c2)c(C)c(C(=O)N2CCC(N[C@@H]3CCOC[C@@H]3OC)CC2)n1` [Example 33b], the Ki was found to be 0.7 nM. Next, `COc1nc(Nc2cccc(C(F)(F)F)c2)c(C)c(C(=O)N2CCC(N[C@H]3CCOC[C@H]3OC)CC2)n1` [Example 33j]: 1 nM. Next, `Cc1c(Nc2ccc3ccccc3c2)ncnc1C(=O)N1CCC(N2CCC(N(C)S(C)(=O)=O)CC2)CC1` [Example 22]: 14 nM; `COc1ccc2ccc(Nc3ncnc(C(=O)N4CCC(N[C@H]5CCOC[C@H]5OC)CC4)c3C)cc2c1` [Example 37]: 15 nM. For `CO[C@H]1COCC[C@H]1NC1CCN(C(=O)c2ncnc(Nc3ccc(Cl)c(C(F)(F)F)c3)c2C)CC1` [Example 31] the value was 5310 nM; for `CO[C@H]1COCC[C@H]1NC1CCN(C(=O)c2ccnc(Nc3cccc(C(F)(F)F)c3)c2C)CC1` [Example 26], 46 nM; for `CO[C@@H]1COCC[C@@H]1NC1CCN(C(=O)c2ncnc(Nc3cccc(C(F)(F)F)c3)c2C)CC1` [Example 18], 6 nM. In the case of `CO[C@@H]1COCC[C@@H]1NC1CCN(C(=O)c2ccnc(Nc3cccc(C(F)(F)F)c3)c2C)CC1` [Example 25], the Ki is 165 nM. Take `COc1cc(Nc2ncnc(C(=O)N3CCC(N[C@@H]4CCOC[C@@H]4OC)CC3)c2C)cc2ccccc12` [Example 41]: the Ki came out at 196 nM.

Regarding `CO[C@H]1COCC[C@H]1NC1CCN(C(=O)c2cc(Nc3cccc(C(F)(F)F)c3)ncn2)CC1` [Example 6], the Ki amounted to 280 nM.

With `COc1ccc2ccc(Nc3ncnc(C(=O)N4CCC(N[C@@H]5CCOC[C@@H]5OC)CC4)c3C)cc2c1` [Example 40], the Ki came to 84 nM.

As to `COC1COCCC1NC1CCN(C(=O)c2ncnc(Nc3ccc(Br)cc3)c2C)CC1` (stereo not drawn) [Example 15], the Ki turned out to be 30 nM. Take `COC1COCCC1NC1CCN(C(=O)c2ncnc(Nc3ccc(Cl)c(Cl)c3)c2C)CC1` (stereo not drawn) [Example 9]: the Ki was determined as 2 nM. Take `COc1nc(Nc2ccc(Cl)c(Cl)c2)c(C)c(C(=O)N2CCC(N[C@H]3CCOC[C@H]3OC)CC2)n1` [Example 33a]: the Ki came to 0.5 nM. For `CO[C@@H]1COCC[C@@H]1NC1CCN(C(=O)c2ncnc(Nc3ccc4ccccc4c3)c2C)CC1` [Example 35] the value was 26 nM; for `CO[C@@H]1COCC[C@@H]1NC1CCN(C(=O)c2nccc(Nc3cccc(C(F)(F)F)c3)c2C)CC1` [Example 27], 5 nM.

Consider `Cc1c(Nc2ccc(Cl)c(Cl)c2)ncnc1C(=O)N1CCC(N[C@@H]2CCOC[C@@H]2F)CC1` [Example 33g], for which the Ki is 8 nM.

As for `Cc1c(Nc2ccc(Cl)c(Cl)c2)ncnc1C(=O)N1CCC(N[C@H]2CCOC[C@H]2F)CC1` [Example 33e], the Ki came to 23 nM.

For the compound `CO[C@H]1COCC[C@H]1NC1CCN(C(=O)c2ncnc(Nc3ccc4cc(Br)ccc4c3)c2C)CC1` [Example 42], the Ki came out at 20 nM. For `CO[C@@H]1COCC[C@@H]1NC1CCN(C(=O)c2ncnc(Nc3ccc(Cl)c(C(F)(F)F)c3)c2C)CC1` [Example 30] the value was 1480 nM.
